The results in this text go back to US20160193240A1, “Ulmoside-A: Useful For Prevention Or Cure Of Metabolic Diseases” (COUNCIL OF SCIENTIFIC & INDUSTRIAL RESEARCH, priority 2013, published 2016).

For this test, the target named is T1, AdipoR2 (Mus musculus, UniProt Q8BQS5).
T1 construct: C2C12 myotubes (that express both AdipoR1 and AdipoR2) were incubated with 20 μl control or ULMA-beads; endogenous in cells; host or cells: C2C12 myotubes (mouse), plasma membrane extract
T1 sequence (Q8BQS5 1-386): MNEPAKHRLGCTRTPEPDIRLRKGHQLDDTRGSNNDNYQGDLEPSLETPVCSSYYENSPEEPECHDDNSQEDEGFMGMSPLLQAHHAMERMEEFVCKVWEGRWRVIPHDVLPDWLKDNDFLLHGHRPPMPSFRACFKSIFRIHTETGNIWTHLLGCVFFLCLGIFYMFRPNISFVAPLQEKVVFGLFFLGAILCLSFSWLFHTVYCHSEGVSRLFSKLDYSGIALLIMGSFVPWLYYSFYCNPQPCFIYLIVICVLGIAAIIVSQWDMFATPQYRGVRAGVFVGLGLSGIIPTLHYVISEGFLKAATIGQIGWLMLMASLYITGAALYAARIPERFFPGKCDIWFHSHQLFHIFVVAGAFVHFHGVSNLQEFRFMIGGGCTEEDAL
The test is described as follows: ULMA-AdipoR interaction assay (ULMA beads, C2C12 myotube membrane extracts, western blot). The conditions noted are these: 50 μg membrane extract, 12 hours. Type of test: binding. The procedure:
B. ULMA interacts with AdipoRs. 20 μl of ULMA beads or control beads were incubated with 50 μg of plasma membrane extracts (prepared using a membrane protein isolation kit; Biomol; according to manufacturer's instructions) prepared from C2C12 myotubes (that expresses both AdipoR1 and AdipoR2) for 12 h on a rotary wheel set at 10 rpm. The supernatant was removed and an aliquot was stored as flowthrough. The pellet was washed 6 times and then the beads were boiled in Lamelli buffer and resolved by 10% denaturing polyacrylamide gel electrophoresis followed by transfer on nitrocellulose membrane and western blotting with anti AdipoR1 or anti-AdipoR2 antibodies. Data represents one of two independent experiments showing identical pattern.
To investigate whether this enhancement of PPAR ligand activity by ULMA indeed happens through AdipoRs, physical interaction between ULMA and AdipoRs were assessed. The ULMA was immobilized on agarose beads.
Preparation of ULMA Specific Affinity Matrix:
ULMA specific Affinity Matrix and Control Matrix were prepared using following protocol.
1. 45 mg and 22.5 mg of epoxy-activated agarose beads (sigma) were weighed and put separately in two 1.5 ml eppendorf tubes. Tubes were labeled as tube-1 and tube-2. 2. The beads were washed 6×, 1 ml each, with double distilled water (DDW). […] At this stage beads were ready for incubation with protein source. […]

On to `O=C1c2c(cc(O)c([C@@H]3O[C@H](CO)[C@@H](O)[C@H](O)[C@H]3O)c2O)O[C@@H](c2ccc(O)c(O)c2)[C@@H]1O` [ULMA, (2S,3S)-(+)-3′,4′,5,7-tetrahydroxydihydroflavonol-6-C-β-D-glucopyranoside], for which the “AdipoR2 detection on ULMA beads vs control beads” value was “detected on ULMA beads”.
